Measured values published in PubChem BioAssay AID1963853 (Molecular Pharmacology Branch, DTP, NCI, 2024).

Tested on: 266295-075-R-J1-PDC spheroid viability
Assay: Anticancer human tumor 266295-075-R-J1-PDC patient-derived head and neck squamous carcinoma cell line growth inhibition [POLQ]
Settings: spheroids with HUVEC and MSC; for IC50: curve of first compound; for viability, T/C: stronger effect = lower value
Procedure, shortened: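 PDC + HUVEC + MSC complex spheroids; POLQ inhibitors ± partner drugs; top conc. at/near clinical Cmax, else 10 microM (SN-38 1 microM), half-log dilutions; 37 degrees C, 5% CO2.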
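Note: spheroids exposed to compounds for seven days before readout.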

How did the IC50 (second compound 0.0316 µM) turn out when `CC(=O)O[C@H]1C(=O)[C@@]2(C)[C@H]([C@H](OC(=O)c3ccccc3)[C@]3(O)C[C@H](OC(=O)[C@H](O)[C@@H](NC(=O)c4ccccc4)c4ccccc4)C(C)=C1C3(C)C)[C@]1(OC(C)=O)CO[C@@H]1C[C@@H]2O` + Cc1cccc(N(C)C(=O)C2C(O)CCN2c2nc(C)cc(C(F)(F)F)c2C#N)c1 was run?
Its IC50 is over 3 µM.

And the IC50 (second compound 0.1 µM)?
The IC50 was over 3 µM.

What about the IC50 (second compound 0.316 µM) of the same compound?
The IC50 was over 3 µM.

And the IC50 (second compound 1 µM)?
The IC50 was over 3 µM.

What about the IC50 (second compound 3.16 µM) of the same compound?
The IC50 was over 3 µM.

And the IC50 (second compound 10 µM)?
Its IC50 is over 3 µM.

And the viability, T/C (second compound 0.0316 µM, first compound 0.00949 µM)?
The viability, T/C was 71.9%.

And the viability, T/C (second compound 0.0316 µM, first compound 0.03 µM)?
The viability, T/C was 58.7%.

And the viability, T/C (second compound 0.0316 µM, first compound 0.0949 µM)?
Its viability, T/C is 62.5%.

What about the viability, T/C (second compound 0.0316 µM, first compound 0.3 µM) of the same compound?
Its viability, T/C is 80.5%.

What about the viability, T/C (second compound 0.0316 µM, first compound 0.949 µM) of the same compound?
The viability, T/C was 78.7%.

What about the viability, T/C (second compound 0.0316 µM, first compound 3 µM) of the same compound?
Its viability, T/C is 60%.

And the viability, T/C (second compound 0.1 µM, first compound 0.00949 µM)?
Its viability, T/C is 71.7%.

What about the viability, T/C (second compound 0.1 µM, first compound 0.03 µM) of the same compound?
The viability, T/C was 71%.

And the viability, T/C (second compound 0.1 µM, first compound 0.0949 µM)?
Its viability, T/C is 56.9%.

What about the viability, T/C (second compound 0.1 µM, first compound 0.3 µM) of the same compound?
Its viability, T/C is 74.7%.

And the viability, T/C (second compound 0.1 µM, first compound 0.949 µM)?
The viability, T/C was 83.8%.

And the viability, T/C (second compound 0.1 µM, first compound 3 µM)?
Its viability, T/C is 51.8%.

What about the viability, T/C (second compound 0.316 µM, first compound 0.00949 µM) of the same compound?
Its viability, T/C is 100%.

And the viability, T/C (second compound 0.316 µM, first compound 0.03 µM)?
Its viability, T/C is 65.9%.

And the viability, T/C (second compound 0.316 µM, first compound 0.0949 µM)?
The viability, T/C was 64%.

What about the viability, T/C (second compound 0.316 µM, first compound 0.3 µM) of the same compound?
Its viability, T/C is 69.2%.

And the viability, T/C (second compound 0.316 µM, first compound 0.949 µM)?
Its viability, T/C is 71%.

What about the viability, T/C (second compound 0.316 µM, first compound 3 µM) of the same compound?
The viability, T/C was 55.4%.

And the viability, T/C (second compound 1 µM, first compound 0.00949 µM)?
The viability, T/C was 70.8%.

What about the viability, T/C (second compound 1 µM, first compound 0.03 µM) of the same compound?
The viability, T/C was 56.4%.

And the viability, T/C (second compound 1 µM, first compound 0.0949 µM)?
Its viability, T/C is 79.4%.

What about the viability, T/C (second compound 1 µM, first compound 0.3 µM) of the same compound?
Its viability, T/C is 68%.

And the viability, T/C (second compound 1 µM, first compound 0.949 µM)?
The viability, T/C was 78.2%.

And the viability, T/C (second compound 1 µM, first compound 3 µM)?
Its viability, T/C is 62.7%.

What about the viability, T/C (second compound 3.16 µM, first compound 0.00949 µM) of the same compound?
The viability, T/C was 93%.

And the viability, T/C (second compound 3.16 µM, first compound 0.03 µM)?
Its viability, T/C is 60.2%.

And the viability, T/C (second compound 3.16 µM, first compound 0.0949 µM)?
Its viability, T/C is 73.1%.

What about the viability, T/C (second compound 3.16 µM, first compound 0.3 µM) of the same compound?
The viability, T/C was 69.1%.

What about the viability, T/C (second compound 3.16 µM, first compound 0.949 µM) of the same compound?
The viability, T/C was 81.5%.

What about the viability, T/C (second compound 3.16 µM, first compound 3 µM) of the same compound?
The viability, T/C was 61.9%.

And the viability, T/C (second compound 10 µM, first compound 0.00949 µM)?
Its viability, T/C is 83.8%.

What about the viability, T/C (second compound 10 µM, first compound 0.03 µM) of the same compound?
The viability, T/C was 52.4%.

And the viability, T/C (second compound 10 µM, first compound 0.0949 µM)?
The viability, T/C was 60.9%.

And the viability, T/C (second compound 10 µM, first compound 0.3 µM)?
The viability, T/C was 68.1%.

What about the viability, T/C (second compound 10 µM, first compound 0.949 µM) of the same compound?
The viability, T/C was 72.4%.

What about the viability, T/C (second compound 10 µM, first compound 3 µM) of the same compound?
Its viability, T/C is 62.8%.

For `COc1cc2cc(C(=O)CCC(=O)O)sc2cc1OC` + Cc1cccc(N(C)C(=O)C2C(O)CCN2c2nc(C)cc(C(F)(F)F)c2C#N)c1, which IC50 (second compound 0.0316 µM) is on record?
Its IC50 is over 10 µM.

What about the IC50 (second compound 0.1 µM) of the same compound?
Its IC50 is over 10 µM.

What about the IC50 (second compound 0.316 µM) of the same compound?
The IC50 was over 10 µM.

And the IC50 (second compound 1 µM)?
The IC50 was over 10 µM.

What about the IC50 (second compound 3.16 µM) of the same compound?
Its IC50 is over 10 µM.

And the IC50 (second compound 10 µM)?
Its IC50 is over 10 µM.

And the viability, T/C (second compound 0.0316 µM, first compound 0.0316 µM)?
The viability, T/C was 118%.

What about the viability, T/C (second compound 0.0316 µM, first compound 0.1 µM) of the same compound?
Its viability, T/C is 112%.

What about the viability, T/C (second compound 0.0316 µM, first compound 0.316 µM) of the same compound?
Its viability, T/C is 90%.

And the viability, T/C (second compound 0.0316 µM, first compound 1 µM)?
The viability, T/C was 117%.

And the viability, T/C (second compound 0.0316 µM, first compound 3.16 µM)?
The viability, T/C was 95.7%.

And the viability, T/C (second compound 0.0316 µM, first compound 10 µM)?
The viability, T/C was 96%.

And the viability, T/C (second compound 0.1 µM, first compound 0.0316 µM)?
Its viability, T/C is 113%.

And the viability, T/C (second compound 0.1 µM, first compound 0.1 µM)?
Its viability, T/C is 103%.

And the viability, T/C (second compound 0.1 µM, first compound 0.316 µM)?
The viability, T/C was 82.9%.

And the viability, T/C (second compound 0.1 µM, first compound 1 µM)?
The viability, T/C was 111%.

What about the viability, T/C (second compound 0.1 µM, first compound 3.16 µM) of the same compound?
The viability, T/C was 115%.

And the viability, T/C (second compound 0.1 µM, first compound 10 µM)?
The viability, T/C was 115%.

What about the viability, T/C (second compound 0.316 µM, first compound 0.0316 µM) of the same compound?
The viability, T/C was 134%.

What about the viability, T/C (second compound 0.316 µM, first compound 0.1 µM) of the same compound?
Its viability, T/C is 112%.

And the viability, T/C (second compound 0.316 µM, first compound 0.316 µM)?
The viability, T/C was 92.6%.

What about the viability, T/C (second compound 0.316 µM, first compound 1 µM) of the same compound?
The viability, T/C was 114%.

What about the viability, T/C (second compound 0.316 µM, first compound 3.16 µM) of the same compound?
The viability, T/C was 87%.

What about the viability, T/C (second compound 0.316 µM, first compound 10 µM) of the same compound?
Its viability, T/C is 84.8%.

What about the viability, T/C (second compound 1 µM, first compound 0.0316 µM) of the same compound?
Its viability, T/C is 106%.

And the viability, T/C (second compound 1 µM, first compound 0.1 µM)?
The viability, T/C was 87.2%.

And the viability, T/C (second compound 1 µM, first compound 0.316 µM)?
The viability, T/C was 126%.

What about the viability, T/C (second compound 1 µM, first compound 1 µM) of the same compound?
Its viability, T/C is 104%.

And the viability, T/C (second compound 1 µM, first compound 3.16 µM)?
Its viability, T/C is 110%.

What about the viability, T/C (second compound 1 µM, first compound 10 µM) of the same compound?
Its viability, T/C is 80.3%.

And the viability, T/C (second compound 3.16 µM, first compound 0.0316 µM)?
The viability, T/C was 101%.

What about the viability, T/C (second compound 3.16 µM, first compound 0.1 µM) of the same compound?
Its viability, T/C is 112%.

What about the viability, T/C (second compound 3.16 µM, first compound 0.316 µM) of the same compound?
Its viability, T/C is 116%.

And the viability, T/C (second compound 3.16 µM, first compound 1 µM)?
Its viability, T/C is 109%.

What about the viability, T/C (second compound 3.16 µM, first compound 3.16 µM) of the same compound?
The viability, T/C was 98.2%.

What about the viability, T/C (second compound 3.16 µM, first compound 10 µM) of the same compound?
The viability, T/C was 91.3%.

What about the viability, T/C (second compound 10 µM, first compound 0.0316 µM) of the same compound?
Its viability, T/C is 97.2%.

And the viability, T/C (second compound 10 µM, first compound 0.1 µM)?
Its viability, T/C is 109%.

And the viability, T/C (second compound 10 µM, first compound 0.316 µM)?
Its viability, T/C is 102%.

And the viability, T/C (second compound 10 µM, first compound 1 µM)?
Its viability, T/C is 104%.

And the viability, T/C (second compound 10 µM, first compound 3.16 µM)?
Its viability, T/C is 109%.

What about the viability, T/C (second compound 10 µM, first compound 10 µM) of the same compound?
Its viability, T/C is 89.2%.
